{
  "source": "paper PMC5554220",
  "about": "“A Novel Aldosterone Antagonist Limits Renal Injury in 5/6 Nephrectomy” (Scientific Reports, 2017)",
  "key": {"[1]": {"molecular_target": "T1, human progesterone receptor (hPR) (Homo sapiens, UniProt P06401)", "T1 sequence (P06401 679-933 limits assumed)": "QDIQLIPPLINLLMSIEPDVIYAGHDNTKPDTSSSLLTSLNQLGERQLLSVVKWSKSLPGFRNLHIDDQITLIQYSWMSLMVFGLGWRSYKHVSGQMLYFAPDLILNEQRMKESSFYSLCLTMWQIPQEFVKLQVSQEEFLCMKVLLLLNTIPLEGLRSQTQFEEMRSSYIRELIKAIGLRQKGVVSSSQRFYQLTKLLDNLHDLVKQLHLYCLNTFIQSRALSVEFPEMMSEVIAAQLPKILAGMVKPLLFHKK", "assay": "Radioligand binding, [3H]progesterone, hPR expressed in Sf9", "protocol": "Full-length human mineralocorticoid receptor (hMR) to be used in radioligand binding was isolated from a human kidney cDNA library (Clontech, Palo Alto, CA). […] The hMR, hPR, and hAR cDNAs were subcloned in the eukaryotic expression vector pcDNA3. Methods for the expression of functionally active hMR, hAR and hPR utilizing the baculovirus expression system were described previously, [31].\nAffinity of ligands to the soluble receptor was determined using vacuum filtration methods, preparing soluble receptors in 96-well Falcon polystyrene plates (BD Biosciences, Bedford, MA) in a total volume of 250 μl. […] Binding studies for ligands for hPR and hAR were determined using [1,2,6,7-3H(N)] […] Specific binding of 3H-progesterone for hPR and 3H-mibolerone for hAR was determined in the presence and absence of 1 μM mifepristone. Inhibition constants (Ki), were determined either from the Cheng-Prusoff equation[32], or directly using non-linear regression curve fitting to a three-parameter one-site competitive equation. […] Protein was measured using colorimetric detection and quantification of bicinchoninic acid (BCA Protein Assay, Pierce, Rockford, IL). […] Concentration response curves were analyzed statistically using a four-parameter logistic equation (Hill equation for sigmoid curves). […]"}, "[2]": {"system": "rats with 5/6 renal ablation (Nx)", "assay": "Protocol 1 (early treatment), 5/6 renal ablation (Nx)", "format": "in vivo, male Munich-Wistar rats", "from_the_text": "One-hundred forty-five adult male Munich-Wistar rats, obtained from a local facility at the Faculty of Medicine, University of São Paulo, weighing between 220 and 250 g, were used in this study. All experimental procedures were approved by the local Research Ethics Committee (Comissão de Ética para Análise de Projetos de Pesquisa do Hospital das Clínicas da Faculdade de Medicina da Universidade de São Paulo, CAPPesq, process n° 0905/09), and carried out following strictly our institutional guidelines and current international standards for manipulation and care of laboratory animals. Body weights and general conditions were assessed daily. Five-sixths renal ablation (Nx) was performed as a single-step procedure under anesthesia with ketamine 50 mg/kg and xylazine 10 mg/kg im. After ventral laparotomy, the right kidney was excised and two or three branches of the left renal artery were ligated, so as to promote infarction of two-thirds of the left kidney. The operation was invariably well tolerated. Sham-operated rats underwent anesthesia and manipulation of the renal pedicles without removal of renal mass. After surgery, rats received enrofloxacin and, upon recovery, had free access to tap water and regular rodent chow containing 0.5 Na and 22% protein (Nuvital Labs, Curitiba, Brazil), and were kept at 23 ± 1 °C and 60 ± 5% relative air humidity, under an artificial 12–12 hour light/dark cycle. Rats were then treated following two different experimental protocols (described later).\nIn this first protocol, Nx rats were divided into groups: NX + V (N = 8), receiving vehicle; NX + Eple (N = 8), receiving oral (mixed with the chow) Eple, 150 mg/kg/day; and Nx + Ly (N = 8), receiving oral Ly, 20 mg/kg/day. A group of sham-operated rats (S, N = 7) was also studied. Treatments were started 24 h after surgery. Rats were followed during 60 days, with determination of TCP and UalbV on Days 30 and 60. TCP was assessed with an optoelectronic automated device (Visitech Systems, Apex, NC), after rats had been preconditioned so as to remain calm during the procedure. UalbV was measured with a conventional immunodiffusion technique. On Day 60, rats were anesthetized as described before, and blood was collected from the abdominal aorta for determination of serum creatinine, serum K^+, PRA and PAC. The remnant kidney was then perfusion-fixed with Duboscq-Brazil solution after a brief washout with saline to remove blood from renal vessels, and prepared for histomorphometric and immunohistochemical analyses using conventional sequential techniques.\nHistomorphometric analysis was performed blindly by two independent observers. The extent of glomerular injury was estimated, in PAS-stained sections, by determining the percentage of glomeruli with sclerotic lesions. The fraction of the renal cortical area occupied by interstitial tissue (%INT) was estimated in 25 consecutive microscopic fields of Masson-stained sections by a point-counting technique, at a final magnification of 200X, under a 144-point grid.\nPRA and PAC were determined using commercially available radioimmunoassay kits (Renin Active IRMA and Aldosterone Active RIA, Beckman Coulter, Carlsbad, CA)."}},
  "data": [
    {"smiles": "O=c1[nH]c2ccc(/C=C3\\c4ccc(F)cc4COc4cc(F)ccc43)cc2[nH]1", "note": "[Ly]", "values": [
      {"measurement": "Ki", "setting": "[1]; hPR expressed in Sf9, [3H]progesterone 0.5 nM, read-out: Mean Ki ± SEM hPR", "value": "0.092 ± 0.019", "unit": "µM"},
      {"measurement": "Ratio of Ki's hPR: hMR", "setting": "[1]; selectivity", "value": 58},
      {"measurement": "Albumin excretion rate (UalbV)", "setting": "[2]; 60 days after ablation, Eple 150 mg/kg/day, Ly 20 mg/kg/day oral", "value": "significantly lower in Ly-treated than in untreated or Eple-treated rats"},
      {"measurement": "Fractional cortical interstitial area", "setting": "[2]; Day 60", "value": "significantly diminished"},
      {"measurement": "Left kidney weight corrected for body weight (renal hypertrophy)", "setting": "[2]; Day 60", "value": "renal hypertrophy was significantly attenuated"},
      {"measurement": "Plasma renin activity (PRA)", "setting": "[2]; Day 60", "value": "markedly increased PRA"},
      {"measurement": "PAC relative to sham (S)", "setting": "[2]; Day 60, higher than in S", "value": "over 30 fold"},
      {"measurement": "Plasma K+ levels", "setting": "[2]; Day 60, versus Nx + V", "value": "not aggravated"},
      {"measurement": "Tail-cuff pressure (TCP)", "setting": "[2]; Eple 150 mg/kg/day, Ly 20 mg/kg/day oral", "value": "More pronounced attenuation of hypertension"}
    ]}
  ]
}
